Where “and” joins values, the source holds several entries; their conditions need not be identical. Identical values can stand only once. Values belong to the compound of their own block, whether it stands above or below them.
Key:
[1] = tested on: donor CD4+ T cells from C57BL/6 mice with irradiated bm12 splenocytes; assay: Mixed lymphocyte reaction (MLR): proliferative response of T cells to alloantigen, 3H-thymidine incorporation; type: cell-based, mouse
Experimental: (§1) A bulk MLR was prepared by combining donor CD4^+ T cells obtained from C57BL/6 (H-2^b) mice (National Institutes of Health, Bethesda, Md., U.S.A.) in a 1:1 ratio with T cell-depleted, irradiated splenocytes obtained from bm12 (H-2^bm12), MHC class II disparate mice (The Jackson Laboratory, Bar Harbor, Me., U.S.A.). An anti-CD40L monoclonal antibody (hybridoma MR1, hamster IgG), obtained by culturing the hybridoma in 10% FBS/DMEM in an Accusyst Jr. hollow fiber bioreactor (Cellex Biosciences, Minneapolis, Minn., U.S.A.), was added to the bulk MLR culture and the cells were incubated for 7-10 days. Proliferative responses of the T cells to alloantigen were determined on days 2, 4, 5, 6, and 7 by measuring ^3H-thymidine incorporation into newly synthesized DNA. The antibody removed from the cultures by washing three times with 2% FBS/PBS, and aliquots of the cells (0.3×10^5, 10^5, and 3×10^5 cells) were administered in 0.5 mL DMEM by tail vein injection to bm12 mice subjected to a sublethal dose (6.0 Gy) of total body irradiation. Control irradiated mice received the same amounts of cells from MLR that had not been exposed to anti-CD40L. The mice were monitored for GVHD lethality, weight changes, and packed cell volume (PCV). Cells remaining from the primary MLR were mixed with fresh bm12 splenocytes for a secondary MLR, and proliferative responses to allogen were measured on days 1 through 5. Aliquots of the secondary MLR cultures were subsequently administered to irradiated bm12 mice.
An MLR culture was prepared consisting of a 1:1 ratio of CD4+ T cells obtained from C57BL/6 mice and T cell-depleted, irradiated MHC class II-disparate stimulators obtained from bm12 mice. PS1145, a potent inhibitor of IκB kinase and thus NF-κB activation, was added to the MLR culture at concentrations of 0.2 μM, 0.6 μM, 1 μM, 2 μM, 6 μM, and 10 μM. Control MLR cultures were left untreated or were treated with DMSO. […] This hyporesponsiveness persisted after washing of the T cells and re-exposure to alloantigen. As with anti-CD40L treated MLR, alloantigen hyporesponsiveness was reversed by addition of 50 U/mL exogenous IL-2 (FIG. 7).
(§2) The tolerance induced by PS1145 was specific to alloantigen, as responses to non-specific mitogens remained largely intact.
CD4^+ CD25^+ cells were required in cultures tolerized by anti-CD40L. To determine whether CD25^+ T cells, which express the high-affinity IL-2 receptor a chain (IL-2Rα), were required for PS 1145 induction of tolerance, CD25^+-depleted T cells were used in primary and secondary MLR. […] Similarly, CD4^+ CD25^+ T cells were not required for tolerance induction by PS1145 in secondary cultures.

TNF-α [2] = assay: TNF-α levels in colon and small intestine after transplant, cytokine bead assay; type: in vivo, mouse; conditions: 5 mg/kg i.p. on days −1 and −2, days 3-18, vs untreated
Experimental: (§3) Expression of TNF-α and MIP-1α (CCL3) was evaluated in mice treated i.p. with PS1145 and subjected to transplantation of T cell-depleted bone marrow with Thy 1-selected splenocytes as a source of T cells. Mice in the test group received 5 mg/kg PS1145 on days −1 and −2 relative to transplant, while control animals were untreated. Animals were sacrificed from days 3-18 for assessment of TNF-α levels in the colon and small intestine and MIP-1α levels in the liver. A cytokine bead assay was used to measure levels of these factors. […] While TNF-α levels in control animals increased from day 3 to day 18, the level was relatively constant in animals exposed to PS1145.

bm12 mice = assay: GVHD lethality after transfer of MLR cells into sublethally irradiated MHC class II disparate recipients; type: in vivo, mouse
Experimental: as §1
CD4^+ T cells that were allowed to recover from a vehicle-treated 7 day MLR were uniformly fatal upon adoptive transfer into sublethally irradiated MHC class-II disparate recipients, whereas T cells subjected to ex vivo PS1145 treatment were lethal to only 22% of recipients. Mice were intravenously injected with either 10^5 naïve T cells, 10^5 cells from 7 day control MLR or 10^5 cells from MLR exposed to 6 μM or 10 μM PS1145 for 7 days. […] Thus, the NF-κB pathway is a critical regulator of T cell responses, and provides an ex vivo approach to inducing alloantigen-specific tolerance as a means of preventing GVHD.

B6D2 recipient mice = assay: Murine stem cell transplant GVHD model, survival; type: in vivo, mouse
Experimental: A murine stem cell transplant model was developed in which bone marrow was removed from B6 (H2^b) donors. The marrow was depleted of T cells by incubation with an anti-Thy 1.2 monoclonal antibody coupled to magnetic beads, followed by removal of T cells that bound the antibody using a magnetic column. Thy 1.2^+ T cells were isolated from splenocytes using a similar approach and were added back to the bone marrow. Animals received between 1-5×10^6 T cells and 3×10^6 bone marrow cells after lethal irradiation. The T cell-depleted marrow was transplanted into B6D2H2^bxd recipient mice that had been subjected to a lethal dose of irradiation (8.5 Gy). Recipient mice were divided into six groups, three of which received 1 mg PS1145 starting on day −2, day 0, or day 6 relative to transplant. The other three groups received methylcellulose as a control, starting on day −2, 0, or 6. PS1145 suspended in methylcellulose or methylcellulose alone was administered daily by gavage, through day 14. Mice were evaluated every three days for weight loss, GVHD, and outcome. […] Treatment with PS1145 that started on day 6 was correlated with an earlier death (all mice were dead by about day 12) as compared to treatment that started on day 0 (all mice were dead by about day 28). All mice in the methylcellulose control group were dead by day 20.
In a similar experiment, recipient mice were subjected to 1125 cGy of irradiation and then treated with oral doses of 5 mg/kg methylcellulose or PS1145. In this case, however, all animals in both groups were dead by about day 42 post-transplant (FIG. 12). […] Thus, the use of PS1145 to ameliorate GVHD via an oral route was not effective using very heavy doses of irradiation.
Experiments also were performed in which 5 mg/kg PS1145 or methylcellulose was given intraperitoneally (i.p.) to mice starting on day −2 and ending on day 14 post-transplantation. B6D2 mice that had received 850 cGy of irradiation were injected with 3×10^6 bone marrow cells from B6 donors and 5×10^6 selected B6 T cells.

TNF-α [3] = assay: LPS-induced TNF-α expression in mice, ELISA; type: in vivo, B6 and BALB/c mice; conditions: 1 μg/kg LPS; 10, 25 or 50 mg/kg oral; 24-72 hours post-treatment; vs controls
Experimental: (§4) B6 and BALB/c mice were given 1 μg/kg of LPS, after which they orally received either control methylcellulose or PS1145 in methylcellulose. Animals were evaluated for expression of the cytokine TNF-α and the chemokine MIP-1α (CCL3) at 24-72 hours post-treatment, as assessed by ELISA.

MIP-1α (CCL3) [4] = assay: LPS-induced MIP-1α (CCL3) expression in mice, ELISA; type: in vivo, B6 and BALB/c mice; conditions: 1 μg/kg LPS; 10, 25 or 50 mg/kg oral; 24-72 hours post-treatment; vs controls
Experimental: as §4

MIP-1α (CCL3) [5] = assay: MIP-1α levels in liver after transplant, cytokine bead assay; type: in vivo, mouse; conditions: 5 mg/kg i.p. on days −1 and −2, days 3-18, vs untreated
Experimental: as §3

[6] = tested on: alloreactive transgenic T cells; assay: T cell apoptosis in MLR of alloreactive and non-alloreactive transgenic T cells, Annexin V binding; type: cell-based; conditions: 10 μM, 1:1 alloreactive and non-alloreactive transgenic T cells
Source text: as §2

NEMO = NEMO (Homo sapiens, UniProt Q9Y6K9); assay: NBD mutants: ability to bind to NEMO; type: binding
[7] = 5 mg/kg i.p. day −2 to day 14, 850 cGy
[8] = oral 5 mg/kg, 1125 cGy irradiation

NEMO, sequence (Q9Y6K9 whole entry, species assumed): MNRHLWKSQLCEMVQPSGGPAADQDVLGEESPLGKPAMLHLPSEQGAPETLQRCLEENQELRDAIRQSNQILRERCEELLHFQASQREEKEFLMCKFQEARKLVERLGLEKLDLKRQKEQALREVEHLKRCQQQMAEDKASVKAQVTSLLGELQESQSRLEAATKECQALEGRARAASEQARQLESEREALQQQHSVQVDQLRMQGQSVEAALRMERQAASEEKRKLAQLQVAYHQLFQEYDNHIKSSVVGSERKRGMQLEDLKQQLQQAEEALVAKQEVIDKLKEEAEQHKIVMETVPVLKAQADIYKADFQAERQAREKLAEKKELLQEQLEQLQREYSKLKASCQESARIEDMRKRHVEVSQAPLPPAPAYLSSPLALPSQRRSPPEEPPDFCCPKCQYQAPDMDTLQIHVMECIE

- Binds to NEMO (NEMO): No
Compound: LAWSWL (Hexapeptide variant of human IKK-beta NBD (SEQ ID NO2) having A in the 2nd position.) [NBD mutant]

- Binds to NEMO (NEMO): Yes
Compound: LDWEWL (Hexapeptide variant of human IKK-beta NBD (SEQ ID NO2) having E in the 4th position.) [NBD mutant]

- Binds to NEMO (NEMO): No
Compound: LDWSAL (Hexapeptide variant of human IKK-beta NBD (SEQ ID NO2) having A in the 5th position.) [NBD mutant]

- Binds to NEMO (NEMO): Yes
Compound: LDWSFL (Hexapeptide variant of human IKK-beta NBD (SEQ ID NO2) having F in the 5th position.) [NBD mutant]

- Binds to NEMO (NEMO): No
Compound: LDWSYL (Hexapeptide variant of human IKK-beta NBD (SEQ ID NO2) having Y in the 5th position.) [NBD mutant]

- Binds to NEMO (NEMO): Yes
Compound: LDYSWL (Hexapeptide variant of human IKK-beta NBD (SEQ ID NO2) having Y in the 3rd position.) [NBD mutant]

- Binds to NEMO (NEMO): Yes
Compound: LNWSWL (Hexapeptide variant of human IKK-beta NBD (SEQ ID NO2) having N in the 2nd position.) [NBD mutant]

The remaining lines, values behind:

Compound: O=C(Nc1cc(Cl)cc2c1[nH]c1cnccc12)c1cccnc1 [PS1145]
- response on re-exposure to allogeneic APC ([1]; 10 μM, re-exposed to allogeneic APC): remained hyporesponsive
- proliferation after secondary stimulus of CD3+ and CD28+ cells ([1]; 10 μM, secondary stimulus CD3+ and CD28+ cells): comparable to controls
- alloantigen hyporesponsiveness with exogenous IL-2 ([1]; 50 U/mL exogenous IL-2 added): reversed
- T cell proliferation in response to alloantigen ([1]; MLR treated with 6 μM and 10 μM): reduced level of proliferation
- hyporesponsiveness after washing of the T cells and re-exposure to alloantigen ([1]; after washing, re-exposure to alloantigen): persisted
- TNF-α expression in colon and small intestine (TNF-α [2]): significantly decreased
- Long term survival (>90 days) (bm12 mice; 10^5 cells i.v. from MLR exposed to 6 μM for 7 days): five of eight and 5/8
- Long term survival (>90 days) (bm12 mice; 10^5 cells i.v. from MLR exposed to 10 μM for 7 days): nine of ten and 9/10
- recipients to which treated T cells were lethal (bm12 mice; T cells treated ex vivo, adoptive transfer): 22%
- long-term survival rate (bm12 mice; recipients of donor T cells treated ex vivo): 78%
- day by which all mice were dead (B6D2 recipient mice; 1 mg daily by gavage from day 0 through day 14, 8.5 Gy): ~28 days
- day by which all mice were dead (B6D2 recipient mice; 1 mg daily by gavage from day 6 through day 14, 8.5 Gy): ~12 days
- mice surviving at least through day 50 (B6D2 recipient mice; 1 mg daily by gavage from day −2 through day 14, 8.5 Gy): about 20%
- Survival Day 30 (B6D2 recipient mice; [7]): 7/10
- Survival Day 60 (B6D2 recipient mice; [7]): 5/10
- survival of B6D2 mice (B6D2 recipient mice; [7]): 50%
- day post-transplant by which all animals were dead (B6D2 recipient mice; [8]): ~42 days
- survival time compared with methylcellulose group (B6D2 recipient mice; [8]): little difference
- TNF-α expression (TNF-α [3]): markedly reduced
- MIP-1α (CCL3) expression (MIP-1α (CCL3) [4]): markedly reduced
- MIP-1α levels in the liver (MIP-1α (CCL3) [5]): Analogous results
- rate of T cell apoptosis [6]: increased the rate of T cell apoptosis selectively in alloreactive cells

Compound: ADWSWL (Hexapeptide variant of human IKK-beta NBD (SEQ ID NO2) having A in the 1st position.) [NBD mutant]
- Binds to NEMO (NEMO): Yes

Compound: LDASAL (Hexapeptide variant of human IKK-beta NBD (SEQ ID NO2) having A in the 3rd and 5th positions.) [NBD mutant]
- Binds to NEMO (NEMO): No

Compound: LDASWL (Hexapeptide variant of human IKK-beta NBD (SEQ ID NO2) having A in the 3rd position.) [NBD mutant]
- Binds to NEMO (NEMO): No

Compound: LDFSWL (Hexapeptide variant of human IKK-beta NBD (SEQ ID NO2) having F in the 3rd position.) [NBD mutant]
- Binds to NEMO (NEMO): Yes

Compound: LDSWSL (listed as Homo sapiens)
- Binds to NEMO (NEMO): Yes

Compound: LDWAWL (Hexapeptide variant of human IKK-beta NBD (SEQ ID NO2) having A in the 4th position.) [NBD mutant]
- Binds to NEMO (NEMO): Yes

Compound: LDWSWA (Hexapeptide variant of human IKK-beta NBD (SEQ ID NO2) having A in the 6th position.) [NBD mutant]
- Binds to NEMO (NEMO): Yes

Compound: LEWSWL (Hexapeptide variant of human IKK-beta NBD (SEQ ID NO2) having E in the 2nd position.) [NBD mutant]
- Binds to NEMO (NEMO): Yes
